Measured values taken from patent publication US12661410B2, “Compounds for targeted degradation of RET” (C4 Therapeutics, Inc., priority 2020, dated 2026).
Residue numbers refer to the chain shown, from its start. Where two headings read alike, the source gives them in different places.

Legend:
RET (658-1114) = molecular target: T1, RET (658-1114) (Homo sapiens, UniProt P07949); experiment: HiBiT-Degradation, RET wild-type degradation assay (Nano-Glo HiBiT Lytic), 293T.144 cells; format: cell-based; conditions: for DC50 / Emax: 6.0 hours; for DC50: read-out: 293T.144 RET (658-1114) 6.0 hours (DC50); for Emax: read-out: 293T.144 RET (658-1114) 6.0 hours (Emax)
T1 construct: 658-1114; expressed in transfected cells; host or cells: 293T.144 (293T cells, generated in-house)
T1 sequence (P07949 658-1114): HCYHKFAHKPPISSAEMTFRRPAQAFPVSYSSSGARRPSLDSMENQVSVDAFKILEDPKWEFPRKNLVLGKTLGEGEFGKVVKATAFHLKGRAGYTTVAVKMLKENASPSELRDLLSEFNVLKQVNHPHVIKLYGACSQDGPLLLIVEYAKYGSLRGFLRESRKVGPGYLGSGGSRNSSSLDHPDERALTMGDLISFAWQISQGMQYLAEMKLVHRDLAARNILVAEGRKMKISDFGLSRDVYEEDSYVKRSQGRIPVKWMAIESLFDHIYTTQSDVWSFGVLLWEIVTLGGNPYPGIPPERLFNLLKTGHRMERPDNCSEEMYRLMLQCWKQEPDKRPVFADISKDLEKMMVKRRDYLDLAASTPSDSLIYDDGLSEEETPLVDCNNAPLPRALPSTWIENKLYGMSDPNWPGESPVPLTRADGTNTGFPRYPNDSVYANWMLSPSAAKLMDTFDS
Procedure, shortened: (§1)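 Degradation after 6 h compound exposure (top 10 μM, 11 half-log points, duplicates) measured by Nano-Glo HiBiT lytic luminescence. Cells: 293T.144 carrying wild-type and 293T.165 carrying G810R HiBiT-RET kinase domain; curves yield DC50 and Emax.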

RET(KD: 658-1114 G810R) = molecular target: T2, RET(KD: 658-1114 G810R) (Homo sapiens, UniProt P07949, G810R); experiment: HiBiT-Degradation, RET G810R degradation assay (Nano-Glo HiBiT Lytic), 293T.165 cells; format: cell-based; conditions: for Emax / DC50: 6.0 hours; for Emax: % remaining protein, read-out: 293T.165 RET(KD: 658-1114 G810R) 6.0 hours (Emax); for DC50: read-out: 293T.165 RET(KD: 658-1114 G810R) 6.0 hours (DC50)
T2 construct: 658-1114; expressed in transfected cells; host or cells: 293T.165 (293T cells, generated in-house)
T2 sequence (P07949 658-1114 G810R): T1 sequence (P07949 658-1114) with G153R
Procedure, shortened: as §1

[1] = half-maximal degradation concentration

Row | SMILES | 293T.144 RET (658-1114) 6.0 hours (IP) [nM] (RET (658-1114); HiBiT-Degradation) | DC50 (RET (658-1114); HiBiT-Degradation) [nM] | Emax (RET (658-1114); HiBiT-Degradation) [%] | Emax (RET(KD: 658-1114 G810R)) [%] | DC50 (RET(KD: 658-1114 G810R); [1]) [nM] | 293T.165 RET(KD: 658-1114 G810R) 6.0 hours (Emax) (RET(KD: 658-1114 G810R); HiBiT-Degradation) | 293T.165 RET(KD: 658-1114 G810R) 6.0 hours (IP) [nM] (RET(KD: 658-1114 G810R); HiBiT-Degradation) | DC50 (RET(KD: 658-1114 G810R); HiBiT-Degradation) [nM] | 293T.144 RET (658-1114) 6.0 hours (IP) [nM] (RET (658-1114)) | Emax (RET (658-1114); % remaining protein) [%] | DC50 (RET (658-1114); [1]) [nM] | 293T.165 RET(KD: 658-1114 G810R) 6.0 hours (IP) [nM] (RET(KD: 658-1114 G810R))
1 | CC(C)(C)CC(=O)N1[C@@H]2COC[C@H]1CN(c1ccc(-c3nc(-c4cnn([C@H]5CC[C@@H](N6CCN(c7ccc(NC8CCC(=O)NC8=O)cc7F)CC6)CC5)c4)cn4ncc(C#N)c34)cn1)C2 (single isomer, unassigned) [Compound 158] |  |  |  | < 30 | < 50 |  |  |  | ++++ (<50 nM = ++++) | < 30 | < 50 | ++++ (<50 nM = ++++)
2 | Cn1nc(N2CCC(=O)NC2=O)c2ccc(N3CCN([C@H]4CC[C@H](n5cc(-c6cn7ncc(C#N)c7c(-c7ccc(N8C[C@H]9COC[C@@H](C8)N9Cc8ccccn8)nc7)n6)cn5)CC4)CC3)c(F)c21 [Compound 208, 6-[1-[4-[4-[3-(2,4-dioxohexahydropyrimidin-1-yl)-7-fluoro-1-methyl-indazol-6-yl]piperazin-1-yl]cyclohexyl]pyrazol-4-yl]-4-[6-[(1S,5R)-9-(2-pyridylmethyl)-3-oxa-7,9-diazabicyclo[3.3.1]nonan-7-yl]-3-pyridyl]pyrazolo[1,5-a]pyrazine-3-carbonitrile] |  |  |  | < 30 | < 100 |  |  |  | ++++ (<50 nM = ++++) | < 30 | < 50 | ++++ (<50 nM = ++++)

Further lines, with some results ahead:

Row | 293T.144 RET (658-1114) 6.0 hours (IP) [nM] (RET (658-1114); HiBiT-Degradation) | DC50 (RET (658-1114); HiBiT-Degradation) [nM] | Emax (RET (658-1114); HiBiT-Degradation) [%] | Emax (RET(KD: 658-1114 G810R)) [%] | DC50 (RET(KD: 658-1114 G810R); [1]) [nM] | 293T.165 RET(KD: 658-1114 G810R) 6.0 hours (Emax) (RET(KD: 658-1114 G810R); HiBiT-Degradation) | 293T.165 RET(KD: 658-1114 G810R) 6.0 hours (IP) [nM] (RET(KD: 658-1114 G810R); HiBiT-Degradation) | DC50 (RET(KD: 658-1114 G810R); HiBiT-Degradation) [nM] | SMILES | 293T.144 RET (658-1114) 6.0 hours (IP) [nM] (RET (658-1114)) | Emax (RET (658-1114); % remaining protein) [%] | DC50 (RET (658-1114); [1]) [nM] | 293T.165 RET(KD: 658-1114 G810R) 6.0 hours (IP) [nM] (RET(KD: 658-1114 G810R))
3 | ++++ (< 50 nM = ++++) | < 50 | < 30 | < 50 | < 50 | +++ (<50% = +++) | ++++ (< 50 nM = ++++) | < 50 | CCC1(C(=O)NC(C)C)CCN(c2ccc(-c3nc(-c4cnn(C5CCN(C(=O)CN6CCC(c7ccc(NC8CCC(=O)NC8=O)cc7F)CC6)CC5)c4)cn4ncc(C#N)c34)cn2)CC1 (stereo not shown) [Compound 53, 1-[5-[3-cyano-6-[1-[1-[2-[4-[4-[(2,6-dioxo-3-piperidyl)amino]-2-fluoro-phenyl]-1-piperidyl]acetyl]-4-piperidyl]pyrazol-4-yl]pyrazolo[1,5-a]pyrazin-4-yl]-2-pyridyl]-4-ethyl-N-isopropyl-piperidine-4-carboxamide] |  |  |  | 
4 | ++++ (< 50 nM = ++++) | < 50 | < 30 | < 30 | < 50 | ++++ (< 30% = ++++) | ++++ (< 50 nM = ++++) | < 50 | CCC1(C(=O)NC(C)C)CCN(c2ccc(-c3cc(-c4ccc(N5CCC(O)(CCN6CCC(c7ccc(NC8CCC(=O)NC8=O)cc7F)CC6)CC5)cc4)cn4ncc(C#N)c34)cn2)CC1 (stereo not shown) [Compound 39, 1-(5-(3-Cyano-6-(4-(4-(2-(4-(4-((2,6-dioxopiperidin-3-yl)amino)-2-fluorophenyl)piperidin-1-yl)ethyl)-4-hydroxypiperidin-1-yl)phenyl)pyrazolo[1,5-a]pyridin-4-yl)pyridin-2-yl)-4-ethyl-N-isopropylpiperidine-4-carboxamide] |  |  |  | 
5 |  |  |  | < 30 | < 50 |  |  |  | CCC1(C(=O)NC(C)(C)C)CCN(c2ccc(-c3nc(-c4cnn(C5CCN(C(=O)CC6(O)CCN(c7ccc(NC8CCC(=O)NC8=O)cc7Cl)CC6)CC5)c4)cn4ncc(C#N)c34)cn2)CC1 (stereo not shown) [Compound 102, N-tert-butyl-1-[5-[6-[1-[1-[2-[1-[2-chloro-4-[(2,6-dioxo-3-piperidyl)amino]phenyl]-4-hydroxy-4-piperidyl]acetyl]-4-piperidyl]pyrazol-4-yl]-3-cyano-pyrazolo[1,5-a]pyrazin-4-yl]-2-pyridyl]-4-ethyl-piperidine-4-carboxamide] | ++++ (<50 nM = ++++) | < 30 | < 50 | ++++ (<50 nM = ++++)
